Publication PMC6152277, “Synthesis and Evaluation of New Quinoxaline Derivatives of Dehydroabietic Acid as Potential Antitumor Agents” (Molecules : A Journal of Synthetic Chemistry and Natural …, 2017)

Assays:
[1] = tested on: human breast cancer cell line (MCF-7); experiment: MTT cytotoxic assay, MCF-7; type: cell-based; conditions: MCF7, 48 h exposure
Method: (§1) All the compounds (1–3, 4a–o) were evaluated for their in vitro cytotoxic activity against three cancer cell lines including human breast cancer cell line (MCF-7), human hepatocarcinoma cell line (SMMC-7721), human cervical carcinoma cell line (HeLa), and a noncancerous human hepatocyte cell line (LO2) using the MTT assay method. An anticancer drug etoposide (VP-16) was co-assayed as the positive control. The results of the test compounds shown as IC50 values (concentration required to inhibit tumor cell proliferation by 50%), are listed in Table 1.
(§2) The in vitro cytotoxic activities of the quinoxaline derivatives of DAA were evaluated against a human breast cancer cell line (MCF-7), human hepatocarcinoma cell line (SMMC-7721), human cervical carcinoma cell line (HeLa) and noncancerous human hepatocyte cells (LO2) via the MTT colorimetric method. Briefly, different tumor cells were grown in DMEM supplemented with 10% fetal bovine serum, penicillin (100 U/mL), and streptomycin (50 μg/mL). Cells were harvested at the log phase of growth and seeded in 96-well plates (100 μL/well at a density of 2 × 10^5 cells/mL). After 24 h of incubation at 37 °C and 5% CO2 to allow for cell attachment, cultures were exposed to various concentrations of the isolated compounds for 48 h. Finally, the MTT solution (2.5 mg/mL in PBS) was added (40 μL/well). Plates were further incubated for 4 h at 37 °C, and the formazan crystals formed were dissolved by adding 150 μL/well of DMSO. Absorption at 570 nm was measured with an ELISA plate reader. The results were expressed as IC50 values with standard deviations, which were defined as the concentrations at which a 50% survival of the cells was discerned. Etoposide (VP-16) was co-assayed as the positive control.

[2] = tested on: human hepatocarcinoma cell line (SMMC-7721); experiment: MTT cytotoxic assay, SMMC-7721; type: cell-based; conditions: 48 h exposure
Method: as §1, §2

[3] = tested on: human cervical carcinoma cell line (HeLa); experiment: MTT cytotoxic assay, HeLa; type: cell-based; conditions: 48 h exposure
Method: as §1, §2

[4] = tested on: noncancerous human hepatocyte cells (LO2); experiment: MTT cytotoxic assay, LO2; type: cell-based; conditions: 48 h exposure, noncancerous hepatocytes
Method: as §1, §2

[5] = tested on: three cancer cell lines (MCF-7, SMMC-7721, HeLa); experiment: MTT cytotoxic assay, summary statements over the three cancer cell lines; type: cell-based, human; conditions: for IC50: Homo sapiens, at least one of MCF-7, SMMC-7721, HeLa, strong cytotoxicity, read-out: IC50 against at least one cancer cell line; for cytotoxic activity against the three cancer cell lines (in words): MCF-7, SMMC-7721, HeLa
Method: as §1, §2

| SMILES | IC50 [1] | IC50 [2] | IC50 [3] | IC50 [4] | IC50 [5] | cytotoxic activity against the three cancer cell lines (in words) [5] | cytotoxicity to HeLa and/or SMMC-7721 cell lines (in words) [5] |
| --- | --- | --- | --- | --- | --- | --- | --- |
| COC(=O)[C@]1(C)CCC[C@]2(C)c3cc(Br)c4nc(CN5CCNCC5)c(CN5CCNCC5)nc4c3CCC12 (stereo partly shown) [Compound 4i, Methyl 12-bromo-2′,3′-bis(piperazin-1-ylmethyl)-13,14-pyrazinyldeisopropyl-dehydroabietate] | 5.89 ± 0.56 µM | 4.32 ± 0.64 µM | 5.05 ± 0.72 µM | 21.9 ± 2.7 µM | < 10 µM |  |  |
| COC(=O)[C@]1(C)CCC[C@]2(C)c3cc(Br)c4nc(CN(C)C)c(CN(C)C)nc4c3CCC12 (stereo partly shown) [Compound 4a, Methyl 12-bromo-2′,3′-bis((dimethylamino)methyl)-13,14-pyrazinyldeisopropyl-dehydroabietate] | 2.36 ± 0.29 µM | 1.65 ± 0.22 µM | 2.08 ± 0.43 µM | 15.7 ± 0.65 µM |  |  |  |
| CCCN(CCC)Cc1nc2c(Br)cc3c(c2nc1CN(CCC)CCC)CCC1[C@](C)(C(=O)OC)CCC[C@]31C (stereo partly shown) [Compound 4c, Methyl 12-bromo-2′,3′-bis((dipropylamino)methyl)-13,14-pyrazinyldeisopropyl-dehydroabietate] | 21 ± 1.27 µM | 11 ± 0.58 µM | 8.67 ± 0.65 µM | > 50 µM |  |  |  |
| COC(=O)[C@]1(C)CCC[C@]2(C)c3cc(Br)c4nc(Cn5cnnn5)c(Cn5cnnn5)nc4c3CCC12 (stereo partly shown) [Compound 4n, Methyl 12-bromo-2′,3′-bis((1H-tetrazol-1-yl)methyl)-13,14-pyrazinyl-deisopropyl-dehydroabietate] | 15.8 ± 0.81 µM | 10.9 ± 1.68 µM | 13.3 ± 2.71 µM | > 50 µM |  | moderate cytotoxic activity |  |
| COC(=O)[C@]1(C)CCC[C@]2(C)c3cc(Br)c4nc(Cn5ncnn5)c(Cn5ncnn5)nc4c3CCC12 (stereo partly shown) [Compound 4o, Methyl 12-bromo-2′, 3′-bis((2H-tetrazol-2-yl)methyl)-13,14-pyrazinyl-deisopropyl-dehydroabietate] | 24.4 ± 1.69 µM | 16.9 ± 1.95 µM | 20.5 ± 3.12 µM | > 50 µM |  | moderate cytotoxic activity |  |
| COC(=O)[C@]1(C)CCC[C@]2(C)c3cc(Br)c(N)c(N)c3CCC12 (stereo partly shown) [Compound 2] | > 50 µM | > 50 µM | 43.3 ± 3.26 µM | > 50 µM |  |  | mild cytotoxicity |
| COC(=O)[C@]1(C)CCC[C@]2(C)c3cc(Br)c4nc(CN5CCCCCC5)c(CN5CCCCCC5)nc4c3CCC12 (stereo partly shown) [Compound 4g, Methyl 2′,3′-bis(azepan-1-ylmethyl)-12-bromo-13,14-pyrazinyldeisopropyl-dehydroabietate] | > 50 µM | 27.9 ± 2.91 µM | 32 ± 4.21 µM | > 50 µM |  | weak activity |  |
| COc1cc([C@@H]2c3cc4c(cc3[C@@H](O[C@@H]3O[C@@H]5CO[C@@H](C)O[C@H]5[C@H](O)[C@H]3O)[C@H]3COC(=O)[C@H]23)OCO4)cc(OC)c1O [Etoposide, reference compound] | 0.73 ± 0.07 µM | 0.69 ± 0.18 µM | 0.87 ± 0.16 µM | 8.89 ± 0.38 µM |  |  |  |
| COC(=O)[C@]1(C)CCC[C@]2(C)c3cc(Br)c4nc(CN5CCN(C)CC5)c(CN5CCN(C)CC5)nc4c3CCC12 (stereo partly shown) [Compound 4j, Methyl 12-bromo-2′,3′-bis((4-methylpiperazin-1-yl)methyl)-13,14-pyrazinyl-deisopropyl-dehydroabietate] | 12.2 ± 0.75 µM | 8.03 ± 0.7 µM | 6.62 ± 0.59 µM | 29.5 ± 3.61 µM | < 10 µM |  |  |
| COC(=O)[C@]1(C)CCC[C@]2(C)c3cc(Br)c4nc(CBr)c(CBr)nc4c3CCC12 (stereo partly shown) [Compound 3] | > 50 µM | 45.8 ± 5.28 µM | 37.7 ± 3.75 µM | > 50 µM |  |  | mild cytotoxicity |
| COC(=O)[C@]1(C)CCC[C@]2(C)c3cc(Br)c4nc(CN5CCOCC5)c(CN5CCOCC5)nc4c3CCC12 (stereo partly shown) [Compound 4h, Methyl 12-bromo-2′,3′-bis(morpholinomethyl)-13,14-pyrazinyldeisopropyl-dehydroabietate] | 12.3 ± 1.03 µM | 16.3 ± 1.85 µM | 9.67 ± 1.13 µM | 36.6 ± 3.12 µM |  |  |  |
| COC(=O)[C@]1(C)CCC[C@]2(C)c3cc(Br)c4nc(CN5CCCCC5)c(CN5CCCCC5)nc4c3CCC12 (stereo partly shown) [Compound 4f, Methyl 12-bromo-2′,3′-bis(piperidin-1-ylmethyl)-13,14-pyrazinyldeisopropyl-dehydroabietate] | 8.95 ± 0.63 µM | 7.71 ± 0.82 µM | 5.98 ± 0.37 µM | 42.2 ± 2.78 µM | < 10 µM |  |  |
| CCCCN(CCCC)Cc1nc2c(Br)cc3c(c2nc1CN(CCCC)CCCC)CCC1[C@](C)(C(=O)OC)CCC[C@]31C (stereo partly shown) [Compound 4d, Methyl 12-bromo-2′,3′-bis((dibutylamino)methyl)-13,14-pyrazinyldeisopropyl-dehydroabietate] | 28.1 ± 0.92 µM | 32.7 ± 2.69 µM | 25.3 ± 3.01 µM | > 50 µM |  | weak activity |  |
| COC(=O)[C@]1(C)CCC[C@]2(C)c3cc(Br)c4nc(CN5CCCC5)c(CN5CCCC5)nc4c3CCC12 (stereo partly shown) [Compound 4e, Methyl 12-bromo-2′,3′-bis(pyrrolidin-1-ylmethyl)-13,14-pyrazinyldeisopropyl-dehydroabietate] | 20.4 ± 1.51 µM | 18.6 ± 2.37 µM | 12.8 ± 1.26 µM | > 50 µM |  | moderate cytotoxic activity |  |
| COC(=O)[C@]1(C)CCC[C@]2(C)c3cc(Br)c4nc(Cn5ccnn5)c(Cn5ccnn5)nc4c3CCC12 (stereo partly shown) [Compound 4m, Methyl 12-bromo-2′,3′-bis((1H-1,2,3-triazol-1-yl)methyl)-13,14-pyrazinyl-deisopropyl-dehydroabietate] | 3.73 ± 0.62 µM | 4.66 ± 0.42 µM | 2.18 ± 0.37 µM | 18.4 ± 1.73 µM | < 10 µM |  |  |
| CCN1CCN(Cc2nc3c(Br)cc4c(c3nc2CN2CCN(CC)CC2)CCC2[C@](C)(C(=O)OC)CCC[C@]42C)CC1 (stereo partly shown) [Compound 4k, Methyl 12-bromo-2′,3′-bis((4-ethylpiperazin-1-yl)methyl)-13,14-pyrazinyl-deisopropyl-dehydroabietate] | 38.7 ± 2.87 µM | 26.4 ± 3.73 µM | 13.5 ± 2.21 µM | > 50 µM |  | moderate cytotoxic activity |  |
| CC(C)c1ccc2c(c1)CC[C@H]1[C@](C)(C(=O)O)CCC[C@]21C [Compound 1, Dehydroabietic acid] | > 50 µM | > 50 µM | > 50 µM | > 50 µM |  |  |  |
| COC(=O)[C@]1(C)CCC[C@]2(C)c3cc(Br)c4nc(Cn5ccnc5)c(Cn5ccnc5)nc4c3CCC12 (stereo partly shown) [Compound 4l, Methyl 12-bromo-2′,3′-bis((1H-imidazol-1-yl)methyl)-13,14-pyrazinyl-deisopropyl-dehydroabietate] | 22.8 ± 3.21 µM | 15.3 ± 2.06 µM | 12.7 ± 1.35 µM | > 50 µM |  | moderate cytotoxic activity |  |
